Tested on: high-fat diet mouse model
Assay: Therapeutic effect on hyperlipidemia and hypercholesterolemia in high-fat diet mouse model (blood cholesterol and triglycerides)
Assay type: in vivo
Conditions: high-fat diet female ICR mice, oral once a day for 12 weeks; complex extracts 100 mg/kg/day, Lovastatin 20 mg/kg/day
Description: 64 six-week-old female ICR mice were purchased from SLC Co. and acclimated for one week under breeding conditions of a temperature range of 22±1° C., a humidity range of 41±1%, and a 12-hour light/12-hour dark cycle. During this period, the mice were fed a normal diet. Then, the mice were randomly divided into 16 and 48 individuals. To adapt the mice to feed, the 16 individuals (a normal diet-fed group) were fed a normal diet (CA.170481, Teklad Co.) and the 48 individuals (a high-fat diet-fed group) were fed a high-fat diet (D12451, Research Diets Co.) containing 45 kcal % fat under the same breeding conditions as above for one week.
Specifically, eight mice were selected from the normal diet-fed group and assigned to a normal diet group. 24 mice were selected from the high-fat diet-fed group, eight of which were assigned to a high-fat diet group, a high-fat diet+complex extracts administration group, and a high-fat diet+Lovastatin administration group, respectively. Each experimental group was orally administered distilled water or the Artemisiae capillaris Herba and Citrus unshiu Peel complex extracts of Examples 1-3 containing the highest content of scoparone once a day for 12 weeks. In addition, a comparison group was orally administered Lovastatin (Hanmi Pharm. Co., Ltd), which is used to treat hyperlipidemia and hypercholesterolemia, once a day for 12 weeks. In this case, the complex extracts and Lovastatin were each suspended in distilled water and administered orally. In addition, the normal group was fed a normal diet and other experimental groups were fed a high-fat diet for 12 weeks.
In the experimental groups of Experimental Example <2-1>, changes in the contents of triglycerides and cholesterol were confirmed.
Specifically, each experimental group of Experimental Example <2-1> was orally administered samples for 12 weeks. On the last day of the experiment, all animals were bled under ether inhalation anesthesia, and 1 mL of the collected blood was centrifuged for 10 minutes at 3,000 rpm to isolate plasma. The contents of total cholesterol, triglycerides, and low density lipoprotein cholesterol (LDL) in the isolated plasma were measured using an Analyst III kit (Hemagen Diagnositics Co.) according to a manufacturer's procedure, and the content of high density lipoprotein cholesterol (HDL) was measured using an AU400 kit (Olympus Co.) according to a manufacturer's procedure.

CC[C@H](C)C(=O)O[C@H]1C[C@@H](C)C=C2C=C[C@H](C)[C@H](CC[C@@H]3C[C@@H](O)CC(=O)O3)[C@H]21 [Lovastatin]
Serum content HDL: 62.44 ± 1.96 mg/dL | Serum content LDL: 14.91 ± 0.46 mg/dL | Serum content Total cholesterol: 83.26 ± 7.40 mg/dL | Serum content Triglycerides: 81.43 ± 5.24 mg/dL
